Assay results: patent US6458764B1, “GRF analogs with increased biological potency” (Theratechnologies Inc., priority 1995, dated 2002)
Where no end group is shown, it is not given here. The star is where a group is joined. Hexanoyl = CCCCCC(=O)*

Key:
serum IGF-I [1] = assay: Comparative effects of GRF analogs on IGF-I levels in pigs (Example II, D-IGF-I, FIG. 1); type: in vivo, pigs (Landrace x Yorkshire); details: 20 μg/kg 2×/day S.C., days 1 to 5, n=8 pigs per group
Description: This was a 5-day treatment, twice a day S.C. administration of one single dose of each test article vs saline. This experiment was conducted to compare the efficacy of (Aminohexanoyl)0 hGRF (1-29) NH2, (Hexylformiate)0 hGRF (1-29) NH2, (Hexenoyl trans-2)0 hGRF (1-29) NH2, (Hexenoyl trans-3)0 hGRF (1-29) NH2 and (Muconoyl)0 hGRF (1-29) NH2 to that of(Hexanoyl)0 hGRF (1-29) NH2.
ADMINISTRATION: Two daily subcutaneous injections.
TEST SYSTEM: Landrace x Yorkshire pigs.
ANIMAL DESCRIPTION: Fifty six (56) growing barrows pigs weighing 35 kg at the time of purchase.
DESIGN: Fifty six (56) pigs were randomly distributed into 7 experimental groups (n=8 pigs per group). Each group received two daily S.C. administration of the following treatments (volume: 3 ml, S.C. injection).
Treatments were administered from day 1 to 5. Immediately before the injections, one blood sample were collected from each animal, and additional blood samples were collected on day 6.
Blood samples were allowed to clot, serum was harvested by centrifugation and submitted to IGF-I assays.
Results are shown in FIG. 1 as D-IGF-I, which is defined as the increase in IGF-I levels from day 1 (pretreatment levels) to day 6 (after 5 days of GRFs administrations).

serum IGF-I [2] = assay: Repeated S.C. administrations of GRF analogs, serum IGF-I levels in pigs (Example I, Experiments 1-3; radioimmunoassay); type: in vivo, pigs (Landrace x Yorkshire); details: for serum IGF-I, Day 1 (pretreatment): pretreatment baseline; for increase in IGF-I levels: P<0.05
Description: The objective of these experiments was to assess the potential of the GRF analogs as anabolic agents.
Therefore, in order to investigate the anabolic potency of the fatty acid-GRF analogs, their ability to increase IGF-I levels following repeated S.C. administrations in pig was evaluated.
26 Landrace x Yorkshire castrated male pigs (40-45 kg BW) were randomly distributed into 4 experimental groups:
Each animal was injected BID (twice a day) subcutaneously for 4 consecutive days. One blood sample was collected each morning prior to the first injection of the day, and the day after the last injection, for IGF-I measurement.
40 Landrace x Yorkshire castrated male pigs (40-45 kg BW) were randomly distributed into 5 experimental groups:
(§1) Each animal was injected BID (twice a day) subcutaneously for 5 consecutive days. One blood sample was collected each morning prior to the first injection of the day, and the day after the last injection, for IGF-I measurement.
48 Landrace x Yorkshire castrated male pigs (40-45 kg BW) were randomly distributed into 6 experimental groups:
as §1, with “The selected doses were 30 μg/kg for hGRF(1-44)NH2 analogs and 20 μg/kg for hGRF(1-29)NH2 analogs, which give identical doses on a molar basis. Each” for “Each”, “measurements.” for “measurement.”
IGF-I levels were measured in pig serum by double antibody radioimmunoassay after formic acid-acetone extraction, as previously described (Abribat T. et al., 1993, J. Endocrinol., 39:583-589). The extraction prior to radioimmunoassay is a necessary step to remove endogenous IGF-binding proteins.
In both experiments, the IGF-I data were analyzed by a two way repeated measure analysis of variance, with day and treatment (GRF analog) as sources of variation. Multiple comparison procedures were there run (Student-Newman Keuls method). A P<0.05 was considered as statistically significant.

[3] = Experiment 1, 20 μg/kg BID SC × 4 days, mean of 6 to 7
[4] = Experiment 3, 20 μg/kg BID SC × 5 days, mean of 8
[5] = Experiment 3, 30 μg/kg BID SC × 5 days, mean of 8

## (Aminohexanoyl)0 hGRF (1-29) NH2 (aminohexanoyl-YADAIFTNSYRKVLGQLSARKLLQDIMSR-NH2; UniProt P01286 32-60, looked up, fragment) [aminohexanoyl-hGRF(1-29)NH2]
Serum IGF-I [1]
  D-IGF-I: increase in IGF-I levels from day 1 (pretreatment) to day 6: did not

## (Hexenoyl trans-2)0 hGRF (1-29) NH2 ({trans‑2‑hexenoyl}-YADAIFTNSYRKVLGQLSARKLLQDIMSR-NH2; UniProt P01286 32-60, looked up, fragment) [hexenoyl trans2-hGRF(1-29)NH2]
Serum IGF-I [1]
  D-IGF-I: increase in IGF-I levels from day 1 (pretreatment) to day 6: significantly increased IGF-I levels

## (Hexylformiate)0 hGRF (1-29) NH2 (hexylformiate-YADAIFTNSYRKVLGQLSARKLLQDIMSR-NH2; UniProt P01286 32-60, looked up, fragment) [hexylformiate-hGRF(1-29)NH2]
Serum IGF-I [1]
  D-IGF-I: increase in IGF-I levels from day 1 (pretreatment) to day 6: significantly increased IGF-I levels

## (Muconoyl)0 hGRF (1-29) NH2 (muconoyl-YADAIFTNSYRKVLGQLSARKLLQDIMSR-NH2; UniProt P01286 32-60, looked up, fragment) [muconoyl-hGRF(1-29)NH2]
Serum IGF-I [1]
  D-IGF-I: increase in IGF-I levels from day 1 (pretreatment) to day 6: did not

## [butyryl^0] hGRF(1-29)NH2 (YADAIFTNSYRKVLGQLSARKLLQDIMSR; HELM PEPTIDE1{[CCCC(=O)[*:2]].Y.A.D.A.I.F.T.N.S.Y.R.K.V.L.G.Q.L.S.A.R.K.L.L.Q.D.I.M.S.R.[am]}$$$$V2.0; SMILES CCCC(=O)N[C@@H](Cc1ccc(O)cc1)C(=O)N[C@@H](C)C(=O)N[C@@H](CC(=O)O)C(=O)N[C@@H](C)C(=O)N[C@H](C(=O)N[C@@H](Cc1ccccc1)C(=O)N[C@H](C(=O)N[C@@H](CC(N)=O)C(=O)N[C@@H](CO)C(=O)N[C@@H](Cc1ccc(O)cc1)C(=O)N[C@@H](CCCNC(=N)N)C(=O)N[C@@H](CCCCN)C(=O)N[C@H](C(=O)N[C@@H](CC(C)C)C(=O)NCC(=O)N[C@@H](CCC(N)=O)C(=O)N[C@@H](CC(C)C)C(=O)N[C@@H](CO)C(=O)N[C@@H](C)C(=O)N[C@@H](CCCNC(=N)N)C(=O)N[C@@H](CCCCN)C(=O)N[C@@H](CC(C)C)C(=O)N[C@@H](CC(C)C)C(=O)N[C@@H](CCC(N)=O)C(=O)N[C@@H](CC(=O)O)C(=O)N[C@H](C(=O)N[C@@H](CCSC)C(=O)N[C@@H](CO)C(=O)N[C@@H](CCCNC(=N)N)C(N)=O)[C@@H](C)CC)C(C)C)[C@@H](C)O)[C@@H](C)CC; UniProt P01286 32-60, looked up, fragment)
Serum IGF-I [2]; [3]
  serum IGF-I, Day 2: 281 ng/mL
  serum IGF-I, Day 3: 302 ng/mL
  serum IGF-I, Day 4: 289 ng/mL
  serum IGF-I, Day 5: 293 ng/mL
  serum IGF-I, Day 1 (pretreatment): 278 ng/mL

## [hexanoyl^0, 30]hGRF(1-29)NH2 (Hexanoyl-YADAIFTNSYRKVLGQLSARKLLQDIMSR-NH2; also: hexanoyl at position 30; UniProt P01286 32-60, looked up, fragment) [[hexanoyl^0,30] hGRF(1-29)NH2]
Serum IGF-I [2]; [4]
  serum IGF-I, Day 2: 212 ng/mL
  serum IGF-I, Day 3: 253 ng/mL
  serum IGF-I, Day 4: 271 ng/mL
  serum IGF-I, Day 5: 277 ng/mL
  serum IGF-I, Day 6: 294 ng/mL
  serum IGF-I, Day 1 (pretreatment): 205 ng/mL
Serum IGF-I [2]; Experiment 3, 20 μg/kg BID SC, day 4
  increase in IGF-I levels: 32%
Serum IGF-I [2]; Experiment 3, 20 μg/kg BID SC, day 5
  increase in IGF-I levels: 35%
Serum IGF-I [2]; Experiment 3, 20 μg/kg BID SC, day 6
  increase in IGF-I levels: 43%

## [hexanoyl^0]hGRF(1-44)NH2 (Hexanoyl-YADAIFTNSYRKVLGQLSARKLLQDIMSRQQGESNQERGARARL-NH2; UniProt P01286 32-75, looked up) [[hexanoyl^0] hGRF(1-44)NH2]
Serum IGF-I [2]; [5]
  serum IGF-I, Day 2: 290 ng/mL
  serum IGF-I, Day 3: 340 ng/mL
  serum IGF-I, Day 4: 372 ng/mL
  serum IGF-I, Day 5: 361 ng/mL
  serum IGF-I, Day 6: 388 ng/mL
  serum IGF-I, Day 1 (pretreatment): 241 ng/mL
Serum IGF-I [2]; Experiment 3, 30 μg/kg BID SC, day 3
  increase in IGF-I levels: 41%
Serum IGF-I [2]; Experiment 3, 30 μg/kg BID SC, day 4
  increase in IGF-I levels: 54%
Serum IGF-I [2]; Experiment 3, 30 μg/kg BID SC, day 5
  increase in IGF-I levels: 50%
Serum IGF-I [2]; Experiment 3, 30 μg/kg BID SC, day 6
  increase in IGF-I levels: 61%

## [hexanoyl^30]hGRF(1-29)NH2 (YADAIFTNSYRKVLGQLSARKLLQDIMSR-NH2; also: hexanoyl at position 30; UniProt P01286 32-60, looked up, fragment) [[hexanoyl^30] hGRF(1-29)NH2, hexanoyl function anchored at the C-terminal region of hGRF(1-29)NH2]
Serum IGF-I [2]; [4]
  serum IGF-I, Day 2: 270 ng/mL
  serum IGF-I, Day 3: 287 ng/mL
  serum IGF-I, Day 4: 278 ng/mL
  serum IGF-I, Day 5: 276 ng/mL
  serum IGF-I, Day 6: 327 ng/mL
  serum IGF-I, Day 1 (pretreatment): 297 ng/mL

## [octanoyl^0] hGRF(1-29)NH2 (YADAIFTNSYRKVLGQLSARKLLQDIMSR; HELM PEPTIDE1{[CCCCCCCC(=O)[*:2]].Y.A.D.A.I.F.T.N.S.Y.R.K.V.L.G.Q.L.S.A.R.K.L.L.Q.D.I.M.S.R.[am]}$$$$V2.0; SMILES CCCCCCCC(=O)N[C@@H](Cc1ccc(O)cc1)C(=O)N[C@@H](C)C(=O)N[C@@H](CC(=O)O)C(=O)N[C@@H](C)C(=O)N[C@H](C(=O)N[C@@H](Cc1ccccc1)C(=O)N[C@H](C(=O)N[C@@H](CC(N)=O)C(=O)N[C@@H](CO)C(=O)N[C@@H](Cc1ccc(O)cc1)C(=O)N[C@@H](CCCNC(=N)N)C(=O)N[C@@H](CCCCN)C(=O)N[C@H](C(=O)N[C@@H](CC(C)C)C(=O)NCC(=O)N[C@@H](CCC(N)=O)C(=O)N[C@@H](CC(C)C)C(=O)N[C@@H](CO)C(=O)N[C@@H](C)C(=O)N[C@@H](CCCNC(=N)N)C(=O)N[C@@H](CCCCN)C(=O)N[C@@H](CC(C)C)C(=O)N[C@@H](CC(C)C)C(=O)N[C@@H](CCC(N)=O)C(=O)N[C@@H](CC(=O)O)C(=O)N[C@H](C(=O)N[C@@H](CCSC)C(=O)N[C@@H](CO)C(=O)N[C@@H](CCCNC(=N)N)C(N)=O)[C@@H](C)CC)C(C)C)[C@@H](C)O)[C@@H](C)CC; UniProt P01286 32-60, looked up, fragment)
Serum IGF-I [2]; [3]
  serum IGF-I, Day 2: 287 ng/mL
  serum IGF-I, Day 3: 301 ng/mL
  serum IGF-I, Day 4: 301 ng/mL
  serum IGF-I, Day 5: 318 ng/mL
  serum IGF-I, Day 1 (pretreatment): 316 ng/mL
